Test results from US20080292619A1, “Pharmaceutical Composition Containing Meltrin Antagonist” (MOCHIDA PHARMACEUTICAL CO., LTD., priority 2004, published 2008).
In the oligonucleotide strings, read from the 5' end, every base follows the letter of its sugar. An asterisk marks phosphorothioate; unmarked linkages are phosphodiester. Other units and linkages are bracketed, terminal groups are in braces. A string of capitals states the bases alone. d = 2'-deoxy (DNA)

tested on: human meltrin α RNA; assay: Suppression of human meltrin α expression by antisense compound in RD cell (real time PCR); type: cell-based; settings: 50 nM; RD cell; corrected by GAPDH
Procedure, shortened: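 RD cells transfected with heat-denatured antisense oligodeoxynucleotide plus Lipofectin in Opti-MEM for 4 h at 37° C, then cultured 18 h. Meltrin α RNA quantified by TaqMan RT-PCR against plasmid standard curve, GAPDH-corrected; suppression vs untreated cells, rated +/++/+++ for ≥30/50/70%.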

Substance | suppression rate of expression, 50 nM
H145 + 4: tgttctggccagaggatctg (dT*dG*dT*dT*dC*dT*dG*dG*dC*dC*dA*dG*dA*dG*dG*dA*dT*dC*dT*dG; antisense) | ++ (“++” when the suppression rate was at least 50%)
H130 + 10: gaggtgagcctgacagggtt (GAGGTGAGCCTGACAGGGTT; antisense; DNA, all phosphorothioate, methylation of C not given here) | + (“+” when the suppression rate was at least 30%)
H149: caggtctgaggggtgccagg (dC*dA*dG*dG*dT*dC*dT*dG*dA*dG*dG*dG*dG*dT*dG*dC*dC*dA*dG*dG; antisense) | + (“+” when the suppression rate was at least 30%)
H016: gggcgcgctgccatcgtcgc (GGGCGCGCTGCCATCGTCGC; antisense; DNA, all phosphorothioate, methylation of C not given here) | + (“+” when the suppression rate was at least 30%)
H137 + 2: gggctgagggacattcaggc (GGGCTGAGGGACATTCAGGC; antisense; DNA, all phosphorothioate, methylation of C not given here) | +++ (“+++” when the suppression rate was at least 70%)
H144 + 9: atctgcaggcagaggcttct (ATCTGCAGGCAGAGGCTTCT; antisense; DNA, all phosphorothioate, methylation of C not given here) | + (“+” when the suppression rate was at least 30%)
H133 + 5: ccttcggtgggtaggaatct (CCTTCGGTGGGTAGGAATCT; antisense; DNA, all phosphorothioate, methylation of C not given here) | + (“+” when the suppression rate was at least 30%)

same assay, conditions: 200 nM; RD cell; corrected by GAPDH

Substance | suppression rate of expression, 200 nM
H152: cttctcacttaatataggcg (dC*dT*dT*dC*dT*dC*dA*dC*dT*dT*dA*dA*dT*dA*dT*dA*dG*dG*dC*dG; antisense) | + (“+” when the suppression rate was at least 30%)
H080: caaatctgttcccacacttc (dC*dA*dA*dA*dT*dC*dT*dG*dT*dT*dC*dC*dC*dA*dC*dA*dC*dT*dT*dC; antisense) | + (“+” when the suppression rate was at least 30%)
H165: aaaactcagtgatggtaaaa (dA*dA*dA*dA*dC*dT*dC*dA*dG*dT*dG*dA*dT*dG*dG*dT*dA*dA*dA*dA; antisense) | + (“+” when the suppression rate was at least 30%)
H031: tcagtaccgtcttgcagata (TCAGTACCGTCTTGCAGATA; antisense; DNA, all phosphorothioate, methylation of C not given here) | + (“+” when the suppression rate was at least 30%)
H001: gactaggaagagcgttagtg (GACTAGGAAGAGCGTTAGTG; antisense; DNA, all phosphorothioate, methylation of C not given here) | + (“+” when the suppression rate was at least 30%)
H002: actgtccgagttggcccggg (ACTGTCCGAGTTGGCCCGGG; antisense; DNA, all phosphorothioate, methylation of C not given here) | ++ (“++” when the suppression rate was at least 50%)
H239: ttggaatgtattagagctgg (DNA dT*dT*dG*dG*dA*dA*dT*dG*dT*dA*dT*dT*dA*dG*dA*dG*dC*dT*dG*dG; antisense) | + (“+” when the suppression rate was at least 30%)
H189: gccttgagtgacactacaga (dG*dC*dC*dT*dT*dG*dA*dG*dT*dG*dA*dC*dA*dC*dT*dA*dC*dA*dG*dA; antisense) | + (“+” when the suppression rate was at least 30%)
H149: caggtctgaggggtgccagg (dC*dA*dG*dG*dT*dC*dT*dG*dA*dG*dG*dG*dG*dT*dG*dC*dC*dA*dG*dG; antisense) | +++ (“+++” when the suppression rate was at least 70%)
H030: gtgggtttccgtgaaactgc (GTGGGTTTCCGTGAAACTGC; antisense; DNA, all phosphorothioate, methylation of C not given here) | + (“+” when the suppression rate was at least 30%)
H129: gggtggccgggaagggcgca (GGGTGGCCGGGAAGGGCGCA; antisense; DNA, all phosphorothioate, methylation of C not given here) | ++ (“++” when the suppression rate was at least 50%)
H017: gggcgggggacacgggcagc (GGGCGGGGGACACGGGCAGC; antisense; DNA, all phosphorothioate, methylation of C not given here) | ++ (“++” when the suppression rate was at least 50%)
H016: gggcgcgctgccatcgtcgc (GGGCGCGCTGCCATCGTCGC; antisense; DNA, all phosphorothioate, methylation of C not given here) | ++ (“++” when the suppression rate was at least 50%)
H014: ctcgggcccggcggcgagcg (CTCGGGCCCGGCGGCGAGCG; antisense; DNA, all phosphorothioate, methylation of C not given here) | +++ (“+++” when the suppression rate was at least 70%)
H029: tggcaatgagaccttcattt (TGGCAATGAGACCTTCATTT; antisense; DNA, all phosphorothioate, methylation of C not given here) | + (“+” when the suppression rate was at least 30%)
H023: ggtccccactccgaacagag (GGTCCCCACTCCGAACAGAG; antisense; DNA, all phosphorothioate, methylation of C not given here) | + (“+” when the suppression rate was at least 30%)
H061: agctgcgcattgtcatggga (dA*dG*dC*dT*dG*dC*dG*dC*dA*dT*dT*dG*dT*dC*dA*dT*dG*dG*dG*dA; antisense) | + (“+” when the suppression rate was at least 30%)
H045: agagggtggtggaaacacat (AGAGGGTGGTGGAAACACAT; antisense; DNA, all phosphorothioate, methylation of C not given here) | ++ (“++” when the suppression rate was at least 50%)
H225: aagacagaggcatcatggca (dA*dA*dG*dA*dC*dA*dG*dA*dG*dG*dC*dA*dT*dC*dA*dT*dG*dG*dC*dA; antisense) | +++ (“+++” when the suppression rate was at least 70%)
H249: aaaaagacaatgcccacgta (DNA dA*dA*dA*dA*dA*dG*dA*dC*dA*dA*dT*dG*dC*dC*dC*dA*dC*dG*dT*dA; antisense) | ++ (“++” when the suppression rate was at least 50%)
H037: ataagtcccctgagaccaga (ATAAGTCCCCTGAGACCAGA; antisense; DNA, all phosphorothioate, methylation of C not given here) | + (“+” when the suppression rate was at least 30%)

same assay, conditions: 200 nM; chimeric 2′-methoxy antisense oligonucleotides; RD cell

Substance | suppression rate of expression, 200 nM
H076-OMe1: chimeric antisense oligonucleotide GCTGGtctccaagtcCTTCC, uppercase 2′-methoxy nucleotides, lowercase phosphorothioate nucleotides (GCTGGTCTCCAAGTCCTTCC; 2'-O-methyl at 1, 2, 3, 4, 5, 16, 17, 18, 19, 20, other sugars, backbone and T or U not given here; lowercase gap nucleotides phosphorothioate) | ++ (“++” when the suppression rate was at least 50%)
